ChEMBL document CHEMBL5385851, “Natural quinazolinones: From a treasure house to promising anticancer leads” (Eur J Med Chem, 2023)
Values after ≈ are worked out from the molar mass of the structure shown. Blank lines part the entries; values can stand above or below the compound they belong to.

Columns and labels:
A549 [1] = assay: Cytotoxicity against human A549 cells assessed as reduction in cell viability incubated for 24 hrs by MTT based colorimetric assay; assay type: functional; conditions: A549, 24 h
HCT-116 [2] = assay: Cytotoxicity against human HCT-116 cells assessed as reduction in cell growth by MTT based colorimetric assay; assay type: functional
A-375 [3] = assay: Cytotoxicity against human A-375 cells assessed as reduction in cell growth by MTT based colorimetric assay; assay type: functional
HepG2 [4] = assay: Cytotoxicity against human HepG2 cells assessed as reduction in cell growth by MTT based colorimetric assay; assay type: functional
MCF7 [5] = assay: Antiproliferative activity against human MCF7 cells assessed as reduction in cell viability incubated for 48 hrs by MTT assay; assay type: functional, cell-based; conditions: MCF7, 48 h
SK-MEL-28 = assay: Cytotoxicity against human SK-MEL-28 cells assessed as inhibition of cell growth incubated for 72 hrs by MTT assay; assay type: functional, cell-based; conditions: SK-MEL-28, 72 h
A549 [6] = assay: Antiproliferative activity against human A549 cells assessed as cell growth inhibition; assay type: functional, cell-based
A549 [7] = assay: Antiproliferative activity against human A549 cells assessed as reduction in cell viability incubated for 48 hrs by MTT assay; assay type: functional, cell-based; conditions: A549, 48 h
[8] = Antiproliferative activity against human U373 cells assessed as inhibition of cell growth measured after 72 hrs by CTG assay; assay type: functional, cell-based; conditions: U373 MG
HepG2 [9] = assay: Antiproliferative activity against human HepG2 cells assessed as reduction in cell viability incubated for 72 hrs by CCK-8 assay; assay type: functional, cell-based; conditions: HepG2, 72 h
[10] = molecular target: Tryptophan 2,3-dioxygenase (Homo sapiens, UniProt P48775); assay: Inhibition of TDO (unknown origin) expressed in HEK293 cells; assay type: cell-based
Tryptophan 2,3-dioxygenase, sequence (P48775 whole entry): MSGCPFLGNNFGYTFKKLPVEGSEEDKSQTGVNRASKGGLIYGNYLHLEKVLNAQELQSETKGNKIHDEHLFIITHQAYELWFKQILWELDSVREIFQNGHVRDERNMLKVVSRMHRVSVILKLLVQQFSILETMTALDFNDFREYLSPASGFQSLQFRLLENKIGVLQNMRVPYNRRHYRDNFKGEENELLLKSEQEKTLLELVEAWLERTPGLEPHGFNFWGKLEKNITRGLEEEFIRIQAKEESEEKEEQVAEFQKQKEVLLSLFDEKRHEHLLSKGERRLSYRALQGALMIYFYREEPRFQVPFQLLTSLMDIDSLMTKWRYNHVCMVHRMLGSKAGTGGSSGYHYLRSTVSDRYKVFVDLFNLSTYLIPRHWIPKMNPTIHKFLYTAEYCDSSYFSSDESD

[11] = molecular target: Indoleamine 2,3-dioxygenase 1 (Homo sapiens, UniProt P14902); assay: Inhibition of IDO1 in human HeLa cells; assay type: cell-based
Indoleamine 2,3-dioxygenase 1, sequence (P14902 whole entry): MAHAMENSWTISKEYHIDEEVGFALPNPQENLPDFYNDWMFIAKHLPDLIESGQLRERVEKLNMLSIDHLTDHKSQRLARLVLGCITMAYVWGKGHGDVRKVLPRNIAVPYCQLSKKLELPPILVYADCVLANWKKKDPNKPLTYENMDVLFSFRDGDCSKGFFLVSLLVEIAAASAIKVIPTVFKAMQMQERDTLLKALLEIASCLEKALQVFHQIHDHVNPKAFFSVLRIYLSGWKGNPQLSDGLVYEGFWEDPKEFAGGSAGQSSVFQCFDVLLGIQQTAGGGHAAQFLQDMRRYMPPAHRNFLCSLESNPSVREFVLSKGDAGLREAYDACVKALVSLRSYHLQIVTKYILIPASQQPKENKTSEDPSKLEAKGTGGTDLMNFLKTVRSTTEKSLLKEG

A549 [12] = assay: Antiproliferative activity against human A549 cells assessed as reduction in cell growth in presence of doxorubicin by CellTiter-Glo luminescent assay; assay type: functional, cell-based
HCT-116 [13] = assay: Cytotoxicity against human HCT-116 cells assessed as inhibition of cell growth by MTT based colorimetric analysis; assay type: functional
HL-60 = assay: Antiproliferative activity against human HL-60 cells assessed as reduction in cell viability incubated for 72 hrs by MTT assay; assay type: functional, cell-based; conditions: HL-60, 72 h
A-375 [14] = assay: Cytotoxicity against human A-375 cells assessed as inhibition of cell growth by MTT based colorimetric analysis; assay type: functional
HepG2 [15] = assay: Cytotoxicity against human HepG2 cells assessed as inhibition of cell growth by MTT based colorimetric analysis; assay type: functional
NCI-H460 = assay: Cytotoxicity against human NCI-H460 cells assessed as reduction in cell viability by MTS assay; assay type: functional, cell-based
SF-268 = assay: Cytotoxicity against human SF-268 cells assessed as reduction in cell viability by MTS assay; assay type: functional, cell-based
MCF7 [16] = assay: Cytotoxicity against human MCF7 cells assessed as reduction in cell viability by MTS assay; assay type: functional, cell-based
Bel-7402 = assay: Antiproliferative activity against human Bel-7402 cells assessed as inhibition of cell growth measured after 48 hrs by CCK-8 assay; assay type: functional, cell-based; conditions: Bel-7402, 48 h
P388 = assay: Cytotoxicity against mouse P388 cells assessed as reduction in cell growth; assay type: functional; conditions: read-out: ED50 (the source's name)
HCT-116 [17] = assay: Antiproliferative activity against human HCT-116 cells assessed as reduction in cell growth incubated for 24 hrs by MTT assay; assay type: functional, cell-based; conditions: HCT-116, 24 h
MCF7 [18] = assay: Cytotoxicity against human MCF7 cells assessed as reduction in cell viability measured after 48 hrs by MTT assay; assay type: functional, cell-based; conditions: MCF7, 48 h

SMILES: CC(C)C[C@H]1NC(=O)[C@@H](C[C@]2(O)c3ccccc3N3C(=O)[C@@H](C)N[C@H]32)n2c1nc1ccccc1c2=O
IC50 (A549 [1]): 0.54 µM
IC50 (HCT-116 [2]): 203 µM
IC50 (A-375 [3]): 160 µM
IC50 (HepG2 [4]): 76 µM

IC50 (MCF7 [5]): > 100 µM
IC50 (A549 [6]): > 100 µM
IC50 (A549 [7]): 0.54 µM
IC50 (HepG2 [9]): 235 µM
SMILES: C[C@H]1C(=O)N2c3ccccc3[C@@]3(C[C@@H](n4cnc5ccccc5c4=O)C(=O)O3)[C@@H]2N1O
IC50 (SK-MEL-28): > 100 µM
IC50 [8]: > 100 µM

IC50 [10]: 0.07 µM
IC50 [11]: 0.02 µM
SMILES: O=C1c2nc3ccc(CCN4CCOCC4)cc3c(=O)n2C2C=CC(F)=CC12 (centres undefined)

IC50 (MCF7 [5]): > 100 µM
IC50 (A549 [6]): > 100 µM
IC50 (HepG2 [9]): 235 µM
SMILES: CC1(C)C(=O)N2c3ccccc3[C@@]3(C[C@@H](n4cnc5ccccc5c4=O)C(=O)O3)[C@@H]2N1O
IC50 (SK-MEL-28): > 100 µM
IC50 [8]: > 100 µM

IC50 (MCF7 [5]): > 100 µM
IC50 (A549 [6]): > 100 µM
IC50 (HepG2 [9]): 235 µM
SMILES: O=C1O[C@]2(C[C@H]1n1cnc3ccccc3c1=O)C(=O)Nc1ccccc12
IC50 (SK-MEL-28): > 100 µM
IC50 [8]: > 100 µM

IC50 [11]: 0.02 µM
SMILES: CCOC(=O)/C=C/c1ccc2nc3n(c(=O)c2c1)C1C=CC(F)=CC1C3=O (centres undefined)

IC50 (A549 [12]): 0.54 µM
IC50 (HL-60): 52 µg/mL (≈ 104 µM)
SMILES: CC(C)C[C@H]1NC(=O)[C@@H](C[C@]2(O)c3ccccc3N3C(=O)C(C)(C)N[C@H]32)n2c1nc1ccccc1c2=O
IC50 (HCT-116 [13]): 86 µM
IC50 (A-375 [14]): 75 µM
IC50 (HepG2 [15]): 24 µM

SMILES: O=C1OCC23Nc4ccccc4C(=O)N2c2ccccc2C13 (centres undefined)
IC50 (NCI-H460): > 50 µM
IC50 (SF-268): > 50 µM
IC50 (MCF7 [16]): > 50 µM

IC50 (Bel-7402): 62 µg/mL (≈ 182 µM)
SMILES: CC(C)/C=C1\NC(=O)[C@H](CCC(N)=O)n2c1nc1ccccc1c2=O [AURANTIOMIDE C]

SMILES: O=C1/C(=c2\c3ccccc3n3c(=O)c4ccccc4nc23)Nc2ccccc21 [CANDIDINE]
IC50 (NCI-H460): > 50 µM
IC50 (SF-268): > 50 µM
IC50 (MCF7 [16]): > 50 µM

SMILES: C[C@@H]1N[C@H]2N(C1=O)c1ccccc1[C@@]2(O)C[C@@H]1C(=O)N[C@@H](C)c2nc3ccccc3c(=O)n21 [FUMIQUINAZOLINE A]
EC50 (P388): 6.1 µg/mL (≈ 13.7 µM)

SMILES: C[C@@H]1NC(=O)[C@@H](Cc2c[nH]c3ccccc23)n2c1nc1ccccc1c2=O [FUMIQUINAZOLINE F]
EC50 (P388): 14.6 µg/mL (≈ 40.7 µM)

SMILES: C[C@H]1NC(=O)[C@@H](Cc2c[nH]c3ccccc23)n2c1nc1ccccc1c2=O [FUMIQUINAZOLINE G]
EC50 (P388): 17.7 µg/mL (≈ 49.4 µM)

IC50 (HCT-116 [17]): 202 µM
IC50 (MCF7 [5]): > 100 µM
IC50 (A549 [6]): > 100 µM
IC50 (HepG2 [9]): 235 µM
SMILES: C[C@@H]1N[C@@H]2N(C1=O)c1ccccc1[C@@]21C[C@@H](n2cnc3ccccc3c2=O)C(=O)O1 [FUMITREMORGIN F]
IC50 (SK-MEL-28): > 100 µM
IC50 [8]: 90 µM

SMILES: O=C1c2c(O)cccc2-n2c1nc1ccccc1c2=O [PHAITANTHRIN C]
IC50 (NCI-H460): > 50 µM
IC50 (SF-268): > 50 µM
IC50 (MCF7 [16]): > 50 µM

SMILES: COC(=O)c1c2ccccc2n2c(=O)c3ccccc3[nH]c12 [PHAITANTHRIN E]
IC50 (NCI-H460): > 50 µM
IC50 (SF-268): > 50 µM
IC50 (MCF7 [16]): > 50 µM

SMILES: COC(=O)CC1(O)c2ccccc2-n2c1nc1ccccc1c2=O (centres undefined) [PHAITANTHRINS B]
IC50 (NCI-H460): > 50 µM
IC50 (SF-268): > 50 µM
IC50 (MCF7 [16]): > 50 µM

SMILES: CC(=O)O[C@H](c1nc2ccccc2c(=O)n1[C@@H]1C[C@]2(OC1=O)c1ccccc1N1C(=O)C(C)(C)N(O)[C@H]12)C(C)C [TRYPTOQUIVALINE]
IC50 (MCF7 [18]): 72 µM
